Measurements reported in the NIST ThermoML archive (doi:10.1021/acs.jced.6b00455).
± gives the expanded uncertainty stated by the source.

Test: mn = molality of the nth substance listed, in mol/kg
Conditions: 101 kPa, Liquid, Alternating current cell with electrodes

C[N+](C)(C)CCO.O=C([O-])C(F)(F)C(F)(F)C(F)(F)C(F)(F)C(F)(F)F [(2-hydroxyethyl)trimethylammonium perfluorohexanoate] + O
Conditions | electrical conductivity [S/m]
293.15 K, m1 = 0.000375 | 0.0022 ± 0.0001
293.15 K, m1 = 0.000696 | 0.0041 ± 0.0003
293.15 K, m1 = 0.001138 | 0.0071 ± 0.0004
293.15 K, m1 = 0.001477 | 0.0092 ± 0.0006
293.15 K, m1 = 0.001847 | 0.0114 ± 0.0007
293.15 K, m1 = 0.002373 | 0.0146 ± 0.0009
293.15 K, m1 = 0.00271 | 0.0166 ± 0.001
293.15 K, m1 = 0.003146 | 0.0191 ± 0.0011
293.15 K, m1 = 0.003565 | 0.0215 ± 0.0013
293.15 K, m1 = 0.003898 | 0.0234 ± 0.0014
293.15 K, m1 = 0.004204 | 0.0251 ± 0.0015
293.15 K, m1 = 0.004601 | 0.0273 ± 0.0016
293.15 K, m1 = 0.00507 | 0.03 ± 0.0018
293.15 K, m1 = 0.00539 | 0.0318 ± 0.0019
293.15 K, m1 = 0.005815 | 0.034 ± 0.002
293.15 K, m1 = 0.006239 | 0.0364 ± 0.0022
293.15 K, m1 = 0.00662 | 0.0384 ± 0.0023
293.15 K, m1 = 0.007072 | 0.0408 ± 0.0024
293.15 K, m1 = 0.007377 | 0.0425 ± 0.0026
293.15 K, m1 = 0.007726 | 0.0443 ± 0.0027
293.15 K, m1 = 0.008233 | 0.047 ± 0.0028
293.15 K, m1 = 0.008702 | 0.0493 ± 0.003
293.15 K, m1 = 0.009174 | 0.0517 ± 0.0031
293.15 K, m1 = 0.009518 | 0.0535 ± 0.0032
293.15 K, m1 = 0.009916 | 0.0557 ± 0.0033
293.15 K, m1 = 0.01043 | 0.0585 ± 0.0035
293.15 K, m1 = 0.01075 | 0.0607 ± 0.0036
293.15 K, m1 = 0.01135 | 0.0637 ± 0.0038
293.15 K, m1 = 0.01181 | 0.0666 ± 0.004
293.15 K, m1 = 0.01223 | 0.0687 ± 0.0041
298.15 K, m1 = 0.00055 | 0.0043 ± 0.0003
298.15 K, m1 = 0.001005 | 0.0076 ± 0.0005
298.15 K, m1 = 0.001703 | 0.0126 ± 0.0008
298.15 K, m1 = 0.002219 | 0.0163 ± 0.001
298.15 K, m1 = 0.002829 | 0.0204 ± 0.0012
298.15 K, m1 = 0.003309 | 0.0241 ± 0.0014
298.15 K, m1 = 0.003767 | 0.0269 ± 0.0016
298.15 K, m1 = 0.00423 | 0.0305 ± 0.0018
298.15 K, m1 = 0.004871 | 0.0338 ± 0.002
298.15 K, m1 = 0.005471 | 0.0376 ± 0.0023
298.15 K, m1 = 0.005971 | 0.0408 ± 0.0024
298.15 K, m1 = 0.006435 | 0.0436 ± 0.0026
298.15 K, m1 = 0.007097 | 0.0477 ± 0.0029
298.15 K, m1 = 0.007791 | 0.0519 ± 0.0031
298.15 K, m1 = 0.008432 | 0.0557 ± 0.0033
298.15 K, m1 = 0.008992 | 0.0589 ± 0.0035
298.15 K, m1 = 0.009929 | 0.0652 ± 0.0039
298.15 K, m1 = 0.01068 | 0.0683 ± 0.0041
298.15 K, m1 = 0.0118 | 0.0747 ± 0.0045
298.15 K, m1 = 0.01243 | 0.0781 ± 0.0047
298.15 K, m1 = 0.01316 | 0.0821 ± 0.0049
298.15 K, m1 = 0.01446 | 0.0892 ± 0.0054
303.15 K, m1 = 0.000466 | 0.0041 ± 0.0003
303.15 K, m1 = 0.000808 | 0.0072 ± 0.0004
303.15 K, m1 = 0.001191 | 0.0104 ± 0.0006
303.15 K, m1 = 0.001576 | 0.0137 ± 0.0008
303.15 K, m1 = 0.002245 | 0.0181 ± 0.0011
303.15 K, m1 = 0.002642 | 0.0212 ± 0.0013
303.15 K, m1 = 0.00302 | 0.0242 ± 0.0015
303.15 K, m1 = 0.003455 | 0.0274 ± 0.0016
303.15 K, m1 = 0.003946 | 0.0311 ± 0.0019
303.15 K, m1 = 0.004412 | 0.0342 ± 0.0021
303.15 K, m1 = 0.004852 | 0.0375 ± 0.0023
303.15 K, m1 = 0.00528 | 0.0407 ± 0.0024
303.15 K, m1 = 0.005774 | 0.0442 ± 0.0027
303.15 K, m1 = 0.006137 | 0.0465 ± 0.0028
303.15 K, m1 = 0.006412 | 0.0486 ± 0.0029
303.15 K, m1 = 0.006786 | 0.0514 ± 0.0031
303.15 K, m1 = 0.00737 | 0.0557 ± 0.0033
303.15 K, m1 = 0.007781 | 0.0587 ± 0.0035
303.15 K, m1 = 0.008049 | 0.0605 ± 0.0036
303.15 K, m1 = 0.008511 | 0.0638 ± 0.0038
303.15 K, m1 = 0.008888 | 0.0663 ± 0.004
303.15 K, m1 = 0.009262 | 0.0691 ± 0.0041
303.15 K, m1 = 0.009766 | 0.0727 ± 0.0044
303.15 K, m1 = 0.01022 | 0.0763 ± 0.0046
308.15 K, m1 = 0.00032 | 0.0028 ± 0.0002
308.15 K, m1 = 0.000664 | 0.006 ± 0.0004
308.15 K, m1 = 0.000979 | 0.0086 ± 0.0005
308.15 K, m1 = 0.001217 | 0.0105 ± 0.0006
308.15 K, m1 = 0.001449 | 0.0125 ± 0.0008
308.15 K, m1 = 0.001666 | 0.0142 ± 0.0009
308.15 K, m1 = 0.002016 | 0.017 ± 0.001
308.15 K, m1 = 0.00224 | 0.0188 ± 0.0011
308.15 K, m1 = 0.002547 | 0.0213 ± 0.0013
308.15 K, m1 = 0.002821 | 0.0235 ± 0.0014
308.15 K, m1 = 0.003227 | 0.0266 ± 0.0016
308.15 K, m1 = 0.003473 | 0.0285 ± 0.0017
308.15 K, m1 = 0.003909 | 0.0318 ± 0.0019
308.15 K, m1 = 0.004306 | 0.0348 ± 0.0021
308.15 K, m1 = 0.004503 | 0.0365 ± 0.0022
308.15 K, m1 = 0.004751 | 0.0383 ± 0.0023
308.15 K, m1 = 0.005079 | 0.0408 ± 0.0024
308.15 K, m1 = 0.005473 | 0.0437 ± 0.0026
308.15 K, m1 = 0.005677 | 0.0452 ± 0.0027
308.15 K, m1 = 0.005898 | 0.0468 ± 0.0028
308.15 K, m1 = 0.006135 | 0.0484 ± 0.0029
308.15 K, m1 = 0.006462 | 0.0505 ± 0.003
308.15 K, m1 = 0.006775 | 0.0522 ± 0.0031
308.15 K, m1 = 0.006992 | 0.0537 ± 0.0032
308.15 K, m1 = 0.007243 | 0.0556 ± 0.0033
308.15 K, m1 = 0.00746 | 0.0572 ± 0.0034
308.15 K, m1 = 0.007893 | 0.0603 ± 0.0036
308.15 K, m1 = 0.008273 | 0.063 ± 0.0038
308.15 K, m1 = 0.008535 | 0.0647 ± 0.0039
308.15 K, m1 = 0.008941 | 0.0676 ± 0.0041
308.15 K, m1 = 0.009261 | 0.0697 ± 0.0042
308.15 K, m1 = 0.009516 | 0.0711 ± 0.0043
308.15 K, m1 = 0.009886 | 0.0734 ± 0.0044
308.15 K, m1 = 0.01025 | 0.076 ± 0.0046
313.15 K, m1 = 0.00043 | 0.0042 ± 0.0003
313.15 K, m1 = 0.000832 | 0.008 ± 0.0005
313.15 K, m1 = 0.001262 | 0.012 ± 0.0007
313.15 K, m1 = 0.001627 | 0.0157 ± 0.0009
313.15 K, m1 = 0.002033 | 0.0192 ± 0.0012
313.15 K, m1 = 0.00239 | 0.0224 ± 0.0013
313.15 K, m1 = 0.002657 | 0.0247 ± 0.0015
313.15 K, m1 = 0.002904 | 0.0268 ± 0.0016
313.15 K, m1 = 0.003178 | 0.0292 ± 0.0018
313.15 K, m1 = 0.003443 | 0.0314 ± 0.0019
313.15 K, m1 = 0.003771 | 0.0349 ± 0.0021
313.15 K, m1 = 0.004146 | 0.038 ± 0.0023
313.15 K, m1 = 0.004519 | 0.0412 ± 0.0025
313.15 K, m1 = 0.004784 | 0.0433 ± 0.0026
313.15 K, m1 = 0.005179 | 0.0467 ± 0.0028
313.15 K, m1 = 0.005436 | 0.0487 ± 0.0029
313.15 K, m1 = 0.005698 | 0.051 ± 0.0031
313.15 K, m1 = 0.006109 | 0.0544 ± 0.0033
313.15 K, m1 = 0.006403 | 0.0567 ± 0.0034
313.15 K, m1 = 0.006614 | 0.0584 ± 0.0035
313.15 K, m1 = 0.006889 | 0.0606 ± 0.0036
313.15 K, m1 = 0.007247 | 0.0637 ± 0.0038
313.15 K, m1 = 0.007657 | 0.0669 ± 0.004
313.15 K, m1 = 0.008021 | 0.0699 ± 0.0042
313.15 K, m1 = 0.008353 | 0.0725 ± 0.0044
313.15 K, m1 = 0.0086 | 0.0744 ± 0.0045
313.15 K, m1 = 0.008852 | 0.0763 ± 0.0046
313.15 K, m1 = 0.009114 | 0.0783 ± 0.0047
313.15 K, m1 = 0.009356 | 0.0803 ± 0.0048
313.15 K, m1 = 0.009621 | 0.0823 ± 0.0049
313.15 K, m1 = 0.009883 | 0.0842 ± 0.0051
313.15 K, m1 = 0.01024 | 0.0869 ± 0.0052
313.15 K, m1 = 0.01049 | 0.0888 ± 0.0053
